The values that follow come from patent US12606544B2, “JAK1 selective kinase inhibitor” (DIZAL (JIANGSU) PHARMACEUTICAL CO., LTD., priority 2019, dated 2026).

One data set has as its target T1, JAK2 (Homo sapiens, UniProt O60674).
T1 construct: purchased Carna Biosciences
As to the kind of experiment: Lance Ultra Kinase Assay, recombinant JAK2. The class given is biochemical. Particulars: 5 mM ATP. As to the method:
(§1) Recombinant JAK1, JAK2, JAK3 and TYK2 purchased from Carna Biosciences. The inhibition potency of compounds against JAK1, JAK2, JAK3 and TYK2 was assessed using Lance Ultra Kinase Assay.
(§2) In brief, recombinant kinases were pre-incubated in the presence or absence of compound at room temperature for 15 minutes. The reaction was initiated by the addition of 5 mM ATP and substrate peptide which could be phosphorylated by kinases in the reaction. After 60 minutes incubation, the reaction was stopped by the addition of the detection reagent mix containing EDTA. The fluorescence was measured at 615 nm and 665 nm, respectively with excitation wavelength at 320 nm. The calculated signal ratio of 665 nm/615 nm is proportional to the kinase activity.

For another data set, the system named is phosphorylation of STAT6. The data set can be described thus: Cellular p-STAT6 assay, IL-13 stimulated THP-1 cells, flow cytometry. The class given is cell-based. Particulars: Homo sapiens, THP-1, THP-1 cells, IL-13 10 ng/ml; read-out: pSTAT6 IC50. As to the method:
To detect phosphorylated STAT6 (pSTAT6), THP-1 cells were harvested by centrifugation at 250 g for 5 min and resuspended in assay medium (RPMI1640+10% FBS) to 2×10^5 cells/well. Test compounds were applied to assay plates in serial dilution from 1 μM to 0.3 nM in DMSO. THP-1 cells were incubated with serial diluted compounds for 60 min at room temperature, followed by stimulation of interleukin (IL-13, 10 ng/ml) for 30 min, fixed in Cytofix buffer (BD Biosciences), and permeabilized in 90% methanol on ice. PE anti-pSTAT6 (BD Biosciences) antibodies were stained for 60 min at room temperature before being analyzed by flow cytometry. In the assay the compounds were thus diluted and dose-response curves for inhibition of the signal determine the IC50 for the compounds.
A general note: In flow cytometry, cells or beads pass a laser one at a time.

For another data set, the target named is T2, JAK3 (Homo sapiens, UniProt P52333).
T2 construct: purchased Carna Biosciences
T2 sequence (P52333 1-1124): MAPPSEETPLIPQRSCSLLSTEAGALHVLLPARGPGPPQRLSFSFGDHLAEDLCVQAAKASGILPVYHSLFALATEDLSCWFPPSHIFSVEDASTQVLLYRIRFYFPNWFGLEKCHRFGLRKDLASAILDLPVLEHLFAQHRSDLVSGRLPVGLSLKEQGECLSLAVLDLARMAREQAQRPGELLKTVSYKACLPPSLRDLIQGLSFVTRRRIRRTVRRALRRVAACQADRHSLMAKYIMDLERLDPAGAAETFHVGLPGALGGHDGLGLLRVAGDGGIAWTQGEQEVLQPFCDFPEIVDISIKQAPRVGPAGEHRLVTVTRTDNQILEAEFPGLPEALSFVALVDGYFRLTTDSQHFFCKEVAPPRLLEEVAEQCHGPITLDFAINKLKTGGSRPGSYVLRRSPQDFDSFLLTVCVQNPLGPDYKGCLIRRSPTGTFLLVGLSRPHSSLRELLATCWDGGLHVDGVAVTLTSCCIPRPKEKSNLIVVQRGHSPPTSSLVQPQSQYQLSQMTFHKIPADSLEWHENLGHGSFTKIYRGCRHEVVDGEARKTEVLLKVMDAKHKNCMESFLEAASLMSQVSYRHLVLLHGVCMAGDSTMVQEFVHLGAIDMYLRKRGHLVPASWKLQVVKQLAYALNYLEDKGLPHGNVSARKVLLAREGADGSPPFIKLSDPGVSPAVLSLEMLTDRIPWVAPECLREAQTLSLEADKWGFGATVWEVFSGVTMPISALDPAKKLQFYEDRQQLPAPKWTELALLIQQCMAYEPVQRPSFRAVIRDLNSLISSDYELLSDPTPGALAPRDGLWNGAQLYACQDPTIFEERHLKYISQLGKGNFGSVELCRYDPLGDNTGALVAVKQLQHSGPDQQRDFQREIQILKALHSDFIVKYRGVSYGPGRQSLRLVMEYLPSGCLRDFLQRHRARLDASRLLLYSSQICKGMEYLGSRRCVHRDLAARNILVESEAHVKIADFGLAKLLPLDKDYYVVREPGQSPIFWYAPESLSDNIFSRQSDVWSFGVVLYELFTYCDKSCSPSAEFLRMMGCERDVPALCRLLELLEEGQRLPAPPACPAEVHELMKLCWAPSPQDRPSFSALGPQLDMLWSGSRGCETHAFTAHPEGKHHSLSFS
As to the kind of experiment: Lance Ultra Kinase Assay, recombinant JAK3. The class given is biochemical. Particulars: 5 mM ATP. As to the method:
as §1, §2

Data set [1] in a line: Metabolic stability in human liver microsome. It counts as in vitro ADME. Particulars: human, pooled human liver microsomes, pH 7.4, 1 μM compound, 1 mg/mL microsomes, NADPH. As to the method: (§3) Rat hepatocytes in male gender and human liver microsome were obtained from commercial vendors (e.g., BioreclamationIVT) and stored at −150° C. prior to use.
For metabolic stability assay with human liver microsome, 1 μM of each test compound was incubated with 1 mg/mL of microsomes (Pooled HLM with 20 mg/ml protein cone) at 37° C. in 250 μL of buffer (100 mM phosphate buffer, pH-7.4) containing 1 mM NADPH solution. […] was quenched with 5 volumes chilled acetonitrile at different time points 0, 0.5, 5, 10, 15, 20 and 30 min in a fresh 96 well plate. The quench plate was centrifuged at 4000 rpm for 15 min. 40 μL of supernatant was diluted to 200 μL with pure water and analyzed using LC-MS/MS. […]
For orientation: Liver microsomes are a subcellular fraction often used to study metabolism.

Data set [2] in a line: Metabolic stability in rat hepatocytes. It counts as in vitro ADME. Particulars: 1 μM compound, male rat hepatocytes. As to the method: as §3
For metabolic stability assay with rat heptatocytes, vials of cryopreserved hepatocytes or microsome were removed from storage, ensured that vials remain at cryogenic temperatures. 1 μM of each test compound (in Acetonitrile; 0.01% DMSO) was incubated with 250 μL of hepatocyte cells (1×10^6 cells/ml) in a 96 deep well plate. […] 40 μL of supernatant was diluted to 200 μL with pure water and analyzed using LC-MS/MS.
In vitro hepatocyte clearance was estimated based on determination of elimination half-life (T1/2) of compounds disappearance from their initial concentrations. Peak area ratios of each compound (test or control) to IS was calculated. Ln (% Control) versus Incubation Time (min) curve was plotted, and the slope of a linear fitting line was calculated. Drug elimination rate constant k (min−1), T1/2 (min), and in vitro intrinsic clearance CLint (μL/min/E6) was calculated according to the following equations: k=−slope T1/2=0.693/k CLint=k/Chep Where Chep (cells×μL^−1) is the cell concentration in the incubation system.

For another data set, the target named is T3, JAK1 (Homo sapiens, UniProt P23458).
T3 construct: purchased Carna Biosciences
T3 sequence (P23458 whole entry): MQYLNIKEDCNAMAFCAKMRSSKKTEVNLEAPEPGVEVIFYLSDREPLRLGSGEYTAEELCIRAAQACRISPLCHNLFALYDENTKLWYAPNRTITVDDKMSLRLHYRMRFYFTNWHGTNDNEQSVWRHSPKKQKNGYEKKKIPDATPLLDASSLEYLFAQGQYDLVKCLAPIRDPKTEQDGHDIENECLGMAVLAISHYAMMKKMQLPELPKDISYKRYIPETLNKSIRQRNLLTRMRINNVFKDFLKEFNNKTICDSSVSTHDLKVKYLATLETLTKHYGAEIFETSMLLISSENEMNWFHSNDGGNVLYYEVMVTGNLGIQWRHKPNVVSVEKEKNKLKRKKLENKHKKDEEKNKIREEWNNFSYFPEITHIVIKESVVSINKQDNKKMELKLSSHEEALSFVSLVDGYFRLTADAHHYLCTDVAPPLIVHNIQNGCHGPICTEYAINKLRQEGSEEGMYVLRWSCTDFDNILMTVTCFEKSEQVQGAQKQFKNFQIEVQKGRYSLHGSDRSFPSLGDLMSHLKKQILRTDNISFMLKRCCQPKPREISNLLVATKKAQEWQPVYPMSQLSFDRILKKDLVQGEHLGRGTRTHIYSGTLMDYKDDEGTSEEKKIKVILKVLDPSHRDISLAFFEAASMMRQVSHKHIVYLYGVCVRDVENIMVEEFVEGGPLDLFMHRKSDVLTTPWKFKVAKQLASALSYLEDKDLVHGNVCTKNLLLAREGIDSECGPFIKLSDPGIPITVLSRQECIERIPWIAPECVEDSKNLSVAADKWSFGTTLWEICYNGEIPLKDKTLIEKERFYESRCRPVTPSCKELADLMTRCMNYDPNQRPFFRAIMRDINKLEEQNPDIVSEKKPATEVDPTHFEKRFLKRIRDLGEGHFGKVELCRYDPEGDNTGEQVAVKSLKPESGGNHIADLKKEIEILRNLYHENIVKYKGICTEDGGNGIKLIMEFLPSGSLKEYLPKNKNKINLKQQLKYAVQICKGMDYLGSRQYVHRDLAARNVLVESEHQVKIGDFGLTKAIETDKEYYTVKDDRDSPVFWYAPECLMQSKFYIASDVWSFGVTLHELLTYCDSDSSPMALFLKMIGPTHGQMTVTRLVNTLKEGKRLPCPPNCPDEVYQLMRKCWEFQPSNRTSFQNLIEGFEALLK
The data set can be described thus: Lance Ultra Kinase Assay, recombinant JAK1. It counts as biochemical. Particulars: 5 mM ATP. As to the method: as §1, §2

For the next data set, the target named is T4, TYK2 (Homo sapiens, UniProt P29597).
T4 construct: purchased Carna Biosciences
T4 sequence (P29597 whole entry): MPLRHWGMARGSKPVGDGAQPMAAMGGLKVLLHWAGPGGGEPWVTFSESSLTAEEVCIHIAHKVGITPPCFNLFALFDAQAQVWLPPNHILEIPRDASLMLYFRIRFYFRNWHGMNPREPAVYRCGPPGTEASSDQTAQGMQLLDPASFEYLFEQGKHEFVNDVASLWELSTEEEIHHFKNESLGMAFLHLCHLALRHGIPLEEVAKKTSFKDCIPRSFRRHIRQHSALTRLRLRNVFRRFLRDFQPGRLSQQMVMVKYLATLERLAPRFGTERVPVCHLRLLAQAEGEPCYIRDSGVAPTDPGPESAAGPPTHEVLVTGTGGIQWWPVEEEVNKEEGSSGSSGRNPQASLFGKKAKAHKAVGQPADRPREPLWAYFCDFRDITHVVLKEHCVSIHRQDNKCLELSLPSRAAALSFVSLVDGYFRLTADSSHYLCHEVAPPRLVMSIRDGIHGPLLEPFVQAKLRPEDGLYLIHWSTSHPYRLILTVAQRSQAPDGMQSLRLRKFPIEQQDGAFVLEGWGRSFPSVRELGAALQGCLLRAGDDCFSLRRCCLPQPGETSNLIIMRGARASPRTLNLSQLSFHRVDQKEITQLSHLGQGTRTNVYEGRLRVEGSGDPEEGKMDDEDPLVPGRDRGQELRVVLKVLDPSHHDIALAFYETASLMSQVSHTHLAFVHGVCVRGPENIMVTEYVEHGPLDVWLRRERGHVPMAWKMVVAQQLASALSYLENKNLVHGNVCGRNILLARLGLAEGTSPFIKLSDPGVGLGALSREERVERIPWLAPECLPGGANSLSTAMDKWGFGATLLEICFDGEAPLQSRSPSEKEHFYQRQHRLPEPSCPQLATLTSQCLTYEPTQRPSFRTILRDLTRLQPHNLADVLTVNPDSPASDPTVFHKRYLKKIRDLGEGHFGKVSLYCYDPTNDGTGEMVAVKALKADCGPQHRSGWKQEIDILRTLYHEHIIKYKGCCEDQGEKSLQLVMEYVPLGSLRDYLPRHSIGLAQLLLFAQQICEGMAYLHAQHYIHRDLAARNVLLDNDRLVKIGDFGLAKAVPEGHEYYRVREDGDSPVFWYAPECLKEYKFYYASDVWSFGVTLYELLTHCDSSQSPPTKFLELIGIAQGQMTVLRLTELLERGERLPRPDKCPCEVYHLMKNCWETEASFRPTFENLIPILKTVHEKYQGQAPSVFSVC
As to the kind of experiment: Lance Ultra Kinase Assay, recombinant TYK2. The class given is biochemical. Particulars: 5 mM ATP. As to the method: as §1, §2

For orientation: pIC50 means the negative decadic logarithm of the IC50, by convention in mol/L. A word on the microsomal CLint: it is the rate of metabolic loss divided by the concentration. A higher microsomal CLint goes with rapid turnover.

pIC50: −log10 of the molar value.

T1 sequence (O60674 whole entry): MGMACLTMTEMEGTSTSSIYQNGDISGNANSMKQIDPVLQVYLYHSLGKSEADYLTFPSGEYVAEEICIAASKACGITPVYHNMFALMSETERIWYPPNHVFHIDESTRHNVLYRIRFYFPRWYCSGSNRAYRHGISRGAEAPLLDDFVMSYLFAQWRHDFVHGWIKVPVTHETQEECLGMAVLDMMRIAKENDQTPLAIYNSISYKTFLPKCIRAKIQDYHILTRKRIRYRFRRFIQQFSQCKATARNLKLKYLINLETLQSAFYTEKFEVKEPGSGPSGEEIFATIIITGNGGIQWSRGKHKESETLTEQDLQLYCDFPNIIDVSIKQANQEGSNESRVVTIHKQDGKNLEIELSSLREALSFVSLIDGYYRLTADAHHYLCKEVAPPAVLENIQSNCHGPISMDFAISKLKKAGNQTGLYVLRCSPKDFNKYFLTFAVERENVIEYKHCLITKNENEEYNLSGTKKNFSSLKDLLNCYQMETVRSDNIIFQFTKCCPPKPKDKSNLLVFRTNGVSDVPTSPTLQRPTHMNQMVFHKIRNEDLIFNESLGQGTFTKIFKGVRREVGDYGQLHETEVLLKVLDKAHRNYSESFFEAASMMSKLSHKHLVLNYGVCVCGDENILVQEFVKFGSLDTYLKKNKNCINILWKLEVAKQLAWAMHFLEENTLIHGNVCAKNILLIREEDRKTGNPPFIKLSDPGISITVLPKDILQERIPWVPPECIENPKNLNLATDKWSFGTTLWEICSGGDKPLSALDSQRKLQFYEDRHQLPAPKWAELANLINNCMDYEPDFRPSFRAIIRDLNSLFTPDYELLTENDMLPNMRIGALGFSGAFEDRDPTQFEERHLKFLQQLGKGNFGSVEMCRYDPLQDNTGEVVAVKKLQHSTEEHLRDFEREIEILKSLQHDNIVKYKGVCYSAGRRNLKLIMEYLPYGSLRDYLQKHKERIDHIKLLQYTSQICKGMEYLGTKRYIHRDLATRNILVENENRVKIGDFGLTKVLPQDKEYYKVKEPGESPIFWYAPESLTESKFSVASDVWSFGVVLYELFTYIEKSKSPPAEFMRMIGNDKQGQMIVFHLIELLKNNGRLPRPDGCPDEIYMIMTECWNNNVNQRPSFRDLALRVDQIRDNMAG

Take `COC[C@H](C(=O)Nc1cccc2c(-c3nc(Nc4ccc5cn[nH]c5c4)ncc3F)c[nH]c12)N1CCN(C)CC1` [Example 13, (R)-N-(3-(2-((1H-indazol-6-yl)amino)-5-fluoropyrimidin-4-yl)-1H-indol-7-yl)-3-methoxy-2-(4-methylpiperazin-1-yl)propanamide]: the pIC50 was 7.06 on JAK2; 8.14 with phosphorylation of STAT6; 5.05 at JAK3; 9.48 on JAK1; 5.86 at TYK2. Moreover, the microsomal CLint at 1 μM in data set [1] came out at 83.1 µL/min/mg. Also, the “Rat Hepatocyte CLint” value in data set [2] stood at 5.5 μL/min/10^6 cells.
For the compound `COC[C@H](C(=O)Nc1cccc2c(-c3nc(Nc4ccc5nc[nH]c5c4)ncc3F)c[nH]c12)N1CCN(C)CC1` [Example 45, (R)-N-(3-(2-((1H-benzo[d]imidazol-6-yl)amino)-5-fluoropyrimidin-4-yl)-1H-indol-7-yl)-3-methoxy-2-(4-methylpiperazin-1-yl)propanamide], the pIC50 on JAK2 is 6.88; with phosphorylation of STAT6, 7.87; on JAK3, less than 5.00; on JAK1 it was 9.85; at TYK2 it was 5.89. Moreover, in data set [1], the microsomal CLint at 1 μM amounted to 45.2 µL/min/mg. Further, in data set [2], the “Rat Hepatocyte CLint” value was determined as 2.7 μL/min/10^6 cells.
`CCOC(=O)c1ccc(Nc2ncc(F)c(-c3c[nH]c4c(NC(=O)[C@@H](COC)N5CCN(C)CC5)cccc34)n2)cn1` [Example 36, ethyl (R)-5-((5-fluoro-4-(7-(3-methoxy-2-(4-methylpiperazin-1-yl)propanamido)-1H-indol-3-yl)pyrimidin-2-yl)amino)picolinate]: the negative-log IC50 (pIC50) at JAK2 is 6.31; with phosphorylation of STAT6, 7.94; on JAK3, less than 5.00; at JAK1 it was 9.54; on TYK2 it was 5.34. In addition, the microsomal CLint at 1 μM in data set [1] was greater than 300 µL/min/mg. The “Rat Hepatocyte CLint” value in data set [2] was greater than 300 μL/min/10^6 cells.
Regarding `COC[C@H](C(=O)Nc1cccc2c(-c3nc(Nc4cnc(CCO)c(OC)c4)ncc3F)c[nH]c12)N1CCN(C)CC1` [Example 66, (R)-N-(3-(5-fluoro-2-((6-(2-hydroxyethyl)-5-methoxypyridin-3-yl)amino)pyrimidin-4-yl)-1H-indol-7-yl)-3-methoxy-2-(4-methylpiperazin-1-yl)propanamide], the pIC50 at JAK2 is 7.92; in the data set on phosphorylation of STAT6 it was 7.69; on JAK3 it was less than 5.00; on JAK1, 9.46; at TYK2 it was 6.26. For the same compound, the microsomal CLint at 1 μM in data set [1] is 25 µL/min/mg. The “Rat Hepatocyte CLint” value in data set [2] came out at 12.7 μL/min/10^6 cells.
Regarding `COC[C@H](C(=O)Nc1cccc2c(-c3nc(Nc4cncc(O)c4)ncc3F)c[nH]c12)N1CCN(C)CC1` [Example 28, (R)-N-(3-(5-fluoro-2-((5-hydroxypyridin-3-yl)amino)pyrimidin-4-yl)-1H-indol-7-yl)-3-methoxy-2-(4-methylpiperazin-1-yl)propanainide], the pIC50 on JAK2 is 6.79; in the data set with phosphorylation of STAT6, 8.02; on JAK3, less than 5.00; at JAK1, 9.92; on TYK2, 5.93.
Taken in the same sequence, the figures for `COC[C@H](C(=O)Nc1cccc2c(-c3nc(Nc4cccc(CCC(=O)OC)n4)ncc3F)c[nH]c12)N1CCN(C)CC1` [Example 55, methyl (R)-3-(6-((5-fluoro-4-(7-(3-methoxy-2-(4-methylpiperazin-1-yl)propanamido)-1H-indol-3-yl)pyrimidin-2-yl)amino)pyridin-2-yl)propanoate] were 5.57, 7.82, less than 5.00, 7.89 and less than 5.00.
In the same order, the values of `COC[C@H](C(=O)Nc1cccc2c(-c3nc(Nc4ccc(NC(=O)OC)nc4)ncc3F)c[nH]c12)N1CCN(C)CC1` [Example 52, methyl (R)-(5-((5-fluoro-4-(7-(3-methoxy-2-(4-methylpiperazin-1-yl)propanamido)-1H-indol-3-yl)pyrimidin-2-yl)amino)pyridin-2-yl)carbamate] are 6.44, 7.82, less than 5.00, 9.37 and 5.66.
In the same order, the values of `COC[C@H](C(=O)Nc1cccc2c(-c3nc(Nc4cncc(C(=O)OC)c4)ncc3F)c[nH]c12)N1CCN(C)CC1` [Example 21, methyl (R)-5-((5-fluoro-4-(7-(3-methoxy-2-(4-methylpiperazin-1-yl)propanamido)-1H-indol-3-yl)pyrimidin-2-yl)amino)nicotinate] are 6.90, 8.08, less than 5.00, 9.70 and 5.94.
On to `COC[C@H](C(=O)Nc1cccc2c(-c3nc(Nc4cc(CO)c5cn[nH]c5c4)ncc3F)c[nH]c12)N1CCN(C)CC1` [Example 61, (R)-N-(3-(5-fluoro-2-((4-(hydroxymethyl)-1H-indazol-6-yl)amino)pyrimidin-4-yl)-1H-indol-7-yl)-3-methoxy-2-(4-methylpiperazin-1-yl)propanamide], for which the pIC50 at JAK2 was 8.10; in the data set with phosphorylation of STAT6 it was 7.75; at JAK3, 5.45; at JAK1, 9.96; at TYK2 it was 6.71.
Regarding `CNC(=O)Cc1ccc(Nc2ncc(F)c(-c3c[nH]c4c(NC(=O)[C@@H](COC)N5CCN(C)CC5)cccc34)n2)cn1` [Example 39, (R)-N-(3-(5-fluoro-2-((6-(2-(methylamino)-2-oxoethyl)pyridin-3-yl)amino)pyrimidin-4-yl)-1H-indol-7-yl)-3-methoxy-2-(4-methylpiperazin-1-yl)propanamide], the pIC50 at JAK2 was 6.50; in the data set on phosphorylation of STAT6 it was 7.92; on JAK3, less than 5.00; on JAK1, 9.64; on TYK2, 6.01.
